{
  "source": "paper PMC5218480",
  "about": "(PLoS ONE, 2017)",
  "system": "MV-4-11 cells",
  "test": "Gene expression microarray analysis (Affymetrix PrimeView) and GSEA",
  "type": "cell-based, human",
  "set-up": "RFU PODN (11730768_x_at) / Fold change /veh PODN (11730768_x_at) / RFU LINC00158 (11744669_a_at) / Fold change /veh LINC00158 (11744669_a_at) / RFU DUSP10 (11751237_a_at) / Fold change /veh DUSP10 (11751237_a_at) / RFU ID3 (11757404_x_at) / Fold change /veh ID3 (11757404_x_at) / RFU PLEKHG5 (11737974_s_at) / Fold change /veh PLEKHG5 (11737974_s_at) / RFU LRRC4B (11730491_at) / Fold change /veh LRRC4B (11730491_at) / RFU GIMAP4 (11747438_a_at) / Fold change /veh GIMAP4 (11747438_a_at) / RFU KRT8 (11758183_x_at) / Fold change /veh KRT8 (11758183_x_at) / RFU CNN1 (11734310_a_at) / Fold change /veh CNN1 (11734310_a_at) / RFU VPS37D (11726825_at) / Fold change /veh VPS37D (11726825_at) / RFU C10orf10 (11716522_x_at) / Fold change /veh C10orf10 (11716522_x_at) / RFU KIR2DL2 /// KIR2DL4 /// KIR2DL5A /// KIR2DL5B /// KIR2DS1 /// KIR2DS2 /// KIR2DS3 /// KIR2DS4 /// KIR3DL3 /// KIR3DL3 /// KIR3DS1 (11738374_at) / Fold change /veh KIR2DL2 /// KIR2DL4 /// KIR2DL5A /// KIR2DL5B /// KIR2DS1 /// KIR2DS2 /// KIR2DS3 /// KIR2DS4 /// KIR3DL3 /// KIR3DL3 /// KIR3DS1 (11738374_at) / RFU C1QL1 (11718748_at) / Fold change /veh C1QL1 (11718748_at) / RFU TMPRSS4 (11747572_a_at) / Fold change /veh TMPRSS4 (11747572_a_at) / RFU HAMP (11756126_x_at) / Fold change /veh HAMP (11756126_x_at) / RFU RNFT2 (11725882_a_at) / Fold change /veh RNFT2 (11725882_a_at) / RFU NR4A2 (11747474_a_at) / Fold change /veh NR4A2 (11747474_a_at) / RFU ABCC12 (11746883_a_at) / Fold change /veh ABCC12 (11746883_a_at) / RFU TMEM136 (11760407_x_at) / Fold change /veh TMEM136 (11760407_x_at) / RFU CLDN22 /// WWC2 (11732394_at) / Fold change /veh CLDN22 /// WWC2 (11732394_at) / RFU HLA-DPB1 (11760878_x_at) / Fold change /veh HLA-DPB1 (11760878_x_at) / RFU SPINT1 (11716480_a_at) / Fold change /veh SPINT1 (11716480_a_at) / RFU GAP43 (11754022_s_at) / Fold change /veh GAP43 (11754022_s_at) / RFU A4GNT (11735810_at) / Fold change /veh A4GNT (11735810_at) / RFU PRB3 (11715151_x_at) / Fold change /veh PRB3 (11715151_x_at) / RFU TUBB4B (11761932_at) / Fold change /veh TUBB4B (11761932_at) / RFU CAPN14 (11732068_a_at) / Fold change /veh CAPN14 (11732068_a_at) / RFU TMCC2 (11721928_a_at) / Fold change /veh TMCC2 (11721928_a_at) / RFU IRGQ (11745062_a_at) / Fold change /veh IRGQ (11745062_a_at) / RFU FAM174B (11720279_a_at) / Fold change /veh FAM174B (11720279_a_at) / RFU TMPRSS4 (11748680_a_at) / Fold change /veh TMPRSS4 (11748680_a_at) / RFU FAM212B (11763350_a_at) / Fold change /veh FAM212B (11763350_a_at) / RFU PLEKHG5 (11743358_a_at) / Fold change /veh PLEKHG5 (11743358_a_at) / RFU ZSCAN30 (11745921_a_at) / Fold change /veh ZSCAN30 (11745921_a_at) / RFU CMKLR1 (11741424_a_at) / Fold change /veh CMKLR1 (11741424_a_at) / RFU LOC101060620 /// MAPK8IP1 (11723275_at) / Fold change /veh LOC101060620 /// MAPK8IP1 (11723275_at) / RFU SPTSSB (11747773_x_at) / Fold change /veh SPTSSB (11747773_x_at) / RFU PRSS12 (11739890_at) / Fold change /veh PRSS12 (11739890_at) / RFU BIN1 (11741810_x_at) / Fold change /veh BIN1 (11741810_x_at) / RFU WNT11 (11732464_a_at) / Fold change /veh WNT11 (11732464_a_at) / RFU C10orf10 (11716521_a_at) / Fold change /veh C10orf10 (11716521_a_at) / RFU C5orf56 (11738089_at) / Fold change /veh C5orf56 (11738089_at) / RFU CYB561 (11721691_x_at) / Fold change /veh CYB561 (11721691_x_at) / RFU ANKRD19P (11752326_a_at) / Fold change /veh ANKRD19P (11752326_a_at) / RFU OR2T12 /// OR2T33 /// OR2T8 (11738714_s_at) / Fold change /veh OR2T12 /// OR2T33 /// OR2T8 (11738714_s_at) / RFU VCAN (11748164_a_at) / Fold change /veh VCAN (11748164_a_at) / RFU JSRP1 (11732532_at) / Fold change /veh JSRP1 (11732532_at) / RFU KRTAP10-11 (11738290_x_at) / Fold change /veh KRTAP10-11 (11738290_x_at) / RFU MYO3A (11730013_a_at) / Fold change /veh MYO3A (11730013_a_at) / RFU EBF3 (11725865_a_at) / Fold change /veh EBF3 (11725865_a_at) / RFU CAMK2N1 (11719241_x_at) / Fold change /veh CAMK2N1 (11719241_x_at) / RFU C5orf56 (11738088_a_at) / Fold change /veh C5orf56 (11738088_a_at) / RFU OLFML3 (11715873_a_at) / Fold change /veh OLFML3 (11715873_a_at) / RFU LOC100653217 /// NTM (11731650_a_at) / Fold change /veh LOC100653217 /// NTM (11731650_a_at) / RFU MAPK11 (11762145_a_at) / Fold change /veh MAPK11 (11762145_a_at) / RFU FIZ1 (11724087_x_at) / Fold change /veh FIZ1 (11724087_x_at) / RFU OASL (11726364_x_at) / Fold change /veh OASL (11726364_x_at) / RFU SOX15 (11748057_x_at) / Fold change /veh SOX15 (11748057_x_at) / RFU CD79A (11719716_a_at) / Fold change /veh CD79A (11719716_a_at) / RFU HIST1H1D (11736915_at) / Fold change /veh HIST1H1D (11736915_at) / RFU CASKIN2 (11723855_a_at) / Fold change /veh CASKIN2 (11723855_a_at) / RFU LOC730098 (11760151_x_at) / Fold change /veh LOC730098 (11760151_x_at) / RFU OR4N2 (11742367_at) / Fold change /veh OR4N2 (11742367_at) / RFU PRRT2 (11749266_a_at) / Fold change /veh PRRT2 (11749266_a_at) / RFU SNX32 (11753110_a_at) / Fold change /veh SNX32 (11753110_a_at) / RFU CDHR5 (11726645_a_at) / Fold change /veh CDHR5 (11726645_a_at) / RFU RCAN1 (11760418_a_at) / Fold change /veh RCAN1 (11760418_a_at) / RFU FAM167A (11723789_a_at) / Fold change /veh FAM167A (11723789_a_at) / RFU FAM26E (11764081_at) / Fold change /veh FAM26E (11764081_at) / RFU ISYNA1 (11749810_s_at) / Fold change /veh ISYNA1 (11749810_s_at) / RFU ACY1 (11761880_at) / Fold change /veh ACY1 (11761880_at) / RFU 11764098_at / Fold change /veh 11764098_at / RFU SAMD14 (11745864_x_at) / Fold change /veh SAMD14 (11745864_x_at) / RFU NPB (11741838_a_at) / Fold change /veh NPB (11741838_a_at) / RFU TMPRSS6 (11731388_a_at) / Fold change /veh TMPRSS6 (11731388_a_at) / RFU KRTAP10-2 (11738614_at) / Fold change /veh KRTAP10-2 (11738614_at) / RFU ARHGAP8 /// PRR5-ARHGAP8 (11727945_x_at) / Fold change /veh ARHGAP8 /// PRR5-ARHGAP8 (11727945_x_at) / RFU KRTAP5-7 /// NADSYN1 (11734609_at) / Fold change /veh KRTAP5-7 /// NADSYN1 (11734609_at) / RFU RASL12 (11751679_a_at) / Fold change /veh RASL12 (11751679_a_at) / RFU CDKN2B (11736163_a_at) / Fold change /veh CDKN2B (11736163_a_at) / RFU PRF1 (11729649_at) / Fold change /veh PRF1 (11729649_at) / RFU, ZNF638 /// ZNF638-IT1 / Fold change vs veh, ZNF638 /// ZNF638-IT1 / RFU, PANK3 / Fold change vs veh, PANK3 / RFU, SH3YL1 / Fold change vs veh, SH3YL1 / RFU, ZEB2 / Fold change vs veh, ZEB2 / RFU, NRIP1 / Fold change vs veh, NRIP1 / RFU, PTTG1IP / Fold change vs veh, PTTG1IP / RFU, CAPN2 / Fold change vs veh, CAPN2 / RFU, MED14 / Fold change vs veh, MED14 / RFU, SNORA58 / Fold change vs veh, SNORA58 / RFU, C1orf63 / Fold change vs veh, C1orf63 / RFU, LRRFIP1 / Fold change vs veh, LRRFIP1 / RFU, NDUFAF7 / Fold change vs veh, NDUFAF7 / RFU, SLC12A2 / Fold change vs veh, SLC12A2 / RFU, IBTK / Fold change vs veh, IBTK / RFU, ESF1 / Fold change vs veh, ESF1 / Fold change vs veh, TMEM50B / RFU, TAOK1 / Fold change vs veh, TAOK1 / RFU, ACBD3 / Fold change vs veh, ACBD3 / RFU, TMA16 / Fold change vs veh, TMA16 / RFU, RWDD3 / Fold change vs veh, RWDD3 / RFU, BCAT1 / Fold change vs veh, BCAT1 / RFU, EDEM3 / Fold change vs veh, EDEM3 / RFU, TMEM33 / Fold change vs veh, TMEM33 / RFU, WDR75 / Fold change vs veh, WDR75 / RFU, AHCTF1 / Fold change vs veh, AHCTF1 / RFU, TFRC / Fold change vs veh, TFRC / RFU, ZDHHC17 / Fold change vs veh, ZDHHC17 / RFU, NOM1 / Fold change vs veh, NOM1 / RFU, ARL8B / Fold change vs veh, ARL8B / RFU, ZBTB11 / Fold change vs veh, ZBTB11 / RFU, TAMM41 / Fold change vs veh, TAMM41 / RFU, KIAA1704 /// LOC100996395 / Fold change vs veh, KIAA1704 /// LOC100996395 / RFU, ING1 / Fold change vs veh, ING1 / RFU, TRMT61B / Fold change vs veh, TRMT61B / RFU, FUBP3 / Fold change vs veh, FUBP3 / RFU, TP53 / Fold change vs veh, TP53 / RFU, TNKS2 / Fold change vs veh, TNKS2 / RFU, ZFP14 / Fold change vs veh, ZFP14 / RFU, ACTR2 / Fold change vs veh, ACTR2 / RFU, PPP3R1 / Fold change vs veh, PPP3R1 / RFU, PIK3R1 / Fold change vs veh, PIK3R1 / RFU, HNRNPA1 / Fold change vs veh, HNRNPA1 / RFU, RNF170 / Fold change vs veh, RNF170 / RFU, ZNF28 / Fold change vs veh, ZNF28 / RFU, RNGTT / Fold change vs veh, RNGTT / RFU, OGT / Fold change vs veh, OGT / RFU, BRD1 / Fold change vs veh, BRD1 / RFU, MARS / Fold change vs veh, MARS / RFU, ZNF655 / Fold change vs veh, ZNF655 / RFU, FAHD1 / Fold change vs veh, FAHD1 / RFU, BDP1 / Fold change vs veh, BDP1 / RFU, LRRCC1 / Fold change vs veh, LRRCC1 / RFU, ARID1A / Fold change vs veh, ARID1A / RFU, ZNF146 / Fold change vs veh, ZNF146 / RFU, ZNF330 / Fold change vs veh, ZNF330 / RFU, GPN3 / Fold change vs veh, GPN3 / RFU, C9orf123 / Fold change vs veh, C9orf123 / RFU, N4BP2L2 / Fold change vs veh, N4BP2L2 / RFU, ARFIP1 / Fold change vs veh, ARFIP1 / RFU, FAM179B / Fold change vs veh, FAM179B / RFU, BCL10 / Fold change vs veh, BCL10 / RFU, UHRF1BP1L / Fold change vs veh, UHRF1BP1L / RFU, BET1 / Fold change vs veh, BET1 / RFU, CNOT2 / Fold change vs veh, CNOT2 / RFU, ZNF268 / Fold change vs veh, ZNF268 / Fold change vs veh, ZNF507 / RFU, DGCR2 / Fold change vs veh, DGCR2 / RFU, WDSUB1 / Fold change vs veh, WDSUB1 / Fold change vs veh, HSP90B1 /// MIR3652 / RFU, ADSS / Fold change vs veh, ADSS / RFU, GK / Fold change vs veh, GK / RFU, ZNF148 / Fold change vs veh, ZNF148 / RFU, TAF9 / Fold change vs veh, TAF9 / RFU, SLC1A5 / Fold change vs veh, SLC1A5 / RFU, SLMO2 / Fold change vs veh, SLMO2 / RFU, ABCC4 / Fold change vs veh, ABCC4 / RFU, LOC101060439 /// RAP1B / Fold change vs veh, LOC101060439 /// RAP1B / RFU, RFX7 / Fold change vs veh, RFX7 / RFU, GTPBP10 / Fold change vs veh, GTPBP10 / RFU, CNEP1R1 / Fold change vs veh, CNEP1R1 / RFU, BIVM-ERCC5 /// ERCC5 / Fold change vs veh, BIVM-ERCC5 /// ERCC5 / RFU, ILF3 / Fold change vs veh, ILF3 / RFU 11762660_at / Fold change /veh 11762660_at / RFU VCAN (11757783_s_at) / Fold change /veh VCAN (11757783_s_at) / RFU DDX43 (11728927_at) / Fold change /veh DDX43 (11728927_at) / RFU KRT8 (11758188_x_at) / Fold change /veh KRT8 (11758188_x_at) / RFU NKD1 (11759106_at) / Fold change /veh NKD1 (11759106_at) / RFU SRD5A1 (11742802_a_at) / Fold change /veh SRD5A1 (11742802_a_at) / RFU TPSAB1 /// TPSB2 (11721975_s_at) / Fold change /veh TPSAB1 /// TPSB2 (11721975_s_at) / RFU GSTM3 (11746129_a_at) / Fold change /veh GSTM3 (11746129_a_at) / RFU IL23R (11737362_x_at) / Fold change /veh IL23R (11737362_x_at) / RFU TMEM51 (11727254_a_at) / Fold change /veh TMEM51 (11727254_a_at) / RFU PIWIL2 (11732686_x_at) / Fold change /veh PIWIL2 (11732686_x_at) / RFU ORM1 (11744905_x_at) / Fold change /veh ORM1 (11744905_x_at) / RFU CCDC152 (11743942_at) / Fold change /veh CCDC152 (11743942_at) / RFU ECM1 (11717891_a_at) / Fold change /veh ECM1 (11717891_a_at) / RFU IL23R (11748794_a_at) / Fold change /veh IL23R (11748794_a_at) / RFU TNFAIP8L3 (11732012_x_at) / Fold change /veh TNFAIP8L3 (11732012_x_at) / RFU MBOAT4 (11741988_at) / Fold change /veh MBOAT4 (11741988_at) / RFU 11764193_at / Fold change /veh 11764193_at / RFU TMEM53 (11763286_at) / Fold change /veh TMEM53 (11763286_at) / RFU MAGEB2 (11727129_at) / Fold change /veh MAGEB2 (11727129_at) / RFU TMEM200A (11744735_a_at) / Fold change /veh TMEM200A (11744735_a_at) / RFU CCDC152 (11751479_a_at) / Fold change /veh CCDC152 (11751479_a_at) / RFU FAM211A (11726209_a_at) / Fold change /veh FAM211A (11726209_a_at) / RFU RGS16 (11746705_a_at) / Fold change /veh RGS16 (11746705_a_at) / RFU VCAN (11755009_s_at) / Fold change /veh VCAN (11755009_s_at) / RFU RHOB (11743442_s_at) / Fold change /veh RHOB (11743442_s_at) / RFU RGS16 (11720943_a_at) / Fold change /veh RGS16 (11720943_a_at) / RFU RGS16 (11720944_at) / Fold change /veh RGS16 (11720944_at) / RFU, VPS4B / Fold change vs veh, VPS4B / RFU, CREB1 / Fold change vs veh, CREB1 / RFU, DNAJC13 / Fold change vs veh, DNAJC13 / RFU, GNAQ / Fold change vs veh, GNAQ / RFU, CDK5R1 / Fold change vs veh, CDK5R1 / RFU, ZRANB3 / Fold change vs veh, ZRANB3 / RFU, CUL4A / Fold change vs veh, CUL4A / RFU, CCNY / Fold change vs veh, CCNY / RFU, UFL1 / Fold change vs veh, UFL1 / RFU, COG3 / Fold change vs veh, COG3 / RFU, DIAPH2 / Fold change vs veh, DIAPH2 / RFU, SKA2 / Fold change vs veh, SKA2 / RFU, AFF3 / Fold change vs veh, AFF3 / RFU, LMF1 / Fold change vs veh, LMF1 / RFU, IPO11 / Fold change vs veh, IPO11 / RFU, DFFB / Fold change vs veh, DFFB / RFU, FOXP1 / Fold change vs veh, FOXP1 / RFU, CARD8 / Fold change vs veh, CARD8 / RFU, STRN3 / Fold change vs veh, STRN3 / RFU, ADK / Fold change vs veh, ADK / RFU, RASSF2 / Fold change vs veh, RASSF2 / RFU, WIPF1 / Fold change vs veh, WIPF1 / RFU, LARP1B / Fold change vs veh, LARP1B / RFU, RASA1 / Fold change vs veh, RASA1 / RFU, RB1 / Fold change vs veh, RB1 / RFU, PPFIA1 / Fold change vs veh, PPFIA1 / RFU, MAT2A / Fold change vs veh, MAT2A / RFU, CCT5 / Fold change vs veh, CCT5 / RFU, WDR92 / Fold change vs veh, WDR92 / RFU, CUX1 / Fold change vs veh, CUX1 / RFU, TTC7A / Fold change vs veh, TTC7A / RFU, TMEM135 / Fold change vs veh, TMEM135 / RFU, DEPTOR / Fold change vs veh, DEPTOR / RFU, CPM / Fold change vs veh, CPM / RFU, DNAJB6 / Fold change vs veh, DNAJB6 / RFU, CACNA2D3 / Fold change vs veh, CACNA2D3 / RFU, DTX4 / Fold change vs veh, DTX4 / RFU, TFCP2 / Fold change vs veh, TFCP2 / RFU, GMCL1 /// GMCL1P1 / Fold change vs veh, GMCL1 /// GMCL1P1 / RFU, AEBP2 / Fold change vs veh, AEBP2 / RFU, SNHG1 /// SNORD22 /// SNORD25 /// SNORD26 /// SNORD27 /// SNORD28 /// SNORD29 /// SNORD31 / Fold change vs veh, SNHG1 /// SNORD22 /// SNORD25 /// SNORD26 /// SNORD27 /// SNORD28 /// SNORD29 /// SNORD31 / Fold change (Aza/veh), C12orf56 (ProbeSet 11735607_a_at) / Fold change (ACY-1035/veh), C12orf56 (ProbeSet 11735607_a_at) / Fold change (Aza/veh), FGFR1OP (ProbeSet 11751329_s_at) / Fold change (ACY-1035/veh), FGFR1OP (ProbeSet 11751329_s_at) / Fold change (Aza/veh), VPS36 (ProbeSet 11739960_a_at) / Fold change (ACY-1035/veh), VPS36 (ProbeSet 11739960_a_at) / RFU SYPL1 (11715823_x_at) / Fold change /veh SYPL1 (11715823_x_at) / RFU IGFBP7 (11715501_s_at) / Fold change /veh IGFBP7 (11715501_s_at) / RFU REEP3 (11722064_at) / Fold change /veh REEP3 (11722064_at) / RFU IGLL1 (11728026_x_at) / Fold change /veh IGLL1 (11728026_x_at): dose or concentration left out as unconfirmed",
  "conditions": "ProbeSet 11723930_at; LIST D",
  "data": [
    {"molecule": "Nc1ccc(-c2cccs2)cc1NC(=O)c1ccc2c(c1)cc(C1CC1)n2CCN1CCOCC1", "note": "[ACY-1035]", "values": [
      {"measurement": "Fold change vs veh, CCT5", "result": 0.85}
    ]}
  ]
}
